Data reported in PubChem BioAssay AID449756 (Broad Institute, 2010).
Results filed as inconclusive are left out.

test system: INS-1E rat beta cells, cytokine apoptosis rescue, ATP luminescence 48 h; assay: INS-1E survival protection against cytokine death – cell-based, luminescence, retest, dose response (AID 449756)

C#CCOCCOCCOCCNc1nc(N2CCN(C(=O)CCCCCCCCCCNC(=O)[C@H]([C@@H](C)CC)n3cc(CCCCCN)nn3)CC2)nc(N2CCN(C(=O)CCCCCCCCCCNC(=O)[C@H]([C@@H](C)CC)n3cc(CCCCN=C(N)N)nn3)CC2)n1 and C#CCOCCOCCOCCNc1nc(N2CCN(C(=O)CCCCCCCCCCNC(=O)[C@H]([C@@H](C)CC)n3cc(CCCCN=C(N)N)nn3)CC2)nc(N2CCN(C(=O)CCCCCCCCCCNC(=O)[C@H](CO)n3cc(CCCCCN)nn3)CC2)n1 are within 1.5-fold of each other in AC50: 4.66 µM for the first, 6.94 µM for the second.

C#CCOCCOCCOCCNc1nc(N2CCN(C(=O)CCCCCCCCCCNC(=O)[C@H]([C@@H](C)CC)n3cc(CCCCCN)nn3)CC2)nc(N2CCN(C(=O)CCCCCCCCCCNC(=O)[C@@H]([C@H](C)O)n3cc(C)nn3)CC2)n1 and C#CCOCCOCCOCCNc1nc(N2CCN(C(=O)CCCCCCCCCCNC(=O)[C@H](CCCCN)n3cc(C)nn3)CC2)nc(N2CCN(C(=O)CCCCCCCCCCNC(=O)[C@@H]([C@H](C)CC)n3cc(CCCCCN)nn3)CC2)n1 are within 1.5-fold of each other in AC50: 5.76 µM for the first, 5.59 µM for the second.

C#CCOCCOCCOCCNc1nc(N2CCN(C(=O)CCCCCCCCCCNC(=O)[C@@H](CCSC)n3cc(CCO)nn3)CC2)nc(N2CCN(C(=O)CCCCCCCCCCNC(=O)[C@H]([C@@H](C)CC)n3cc(CCCCCN)nn3)CC2)n1 and C#CCOCCOCCOCCNc1nc(N2CCN(C(=O)CCCCCCCCCCNC(=O)[C@H]([C@@H](C)CC)n3cc(CCCCN=C(N)N)nn3)CC2)nc(N2CCN(C(=O)CCCCCCCCCCNC(=O)[C@H](CCCCN)n3cc(C)nn3)CC2)n1 are within 1.5-fold of each other in AC50: 3.98 µM for the first, 4.96 µM for the second.

C#CCOCCOCCOCCNc1nc(N2CCN(C(=O)CCCCCCCCCCNC(=O)Cn3cc(CCCCCN)nn3)CC2)nc(N2CCN(C(=O)CCCCCCCCCCNC(=O)[C@H]([C@@H](C)CC)n3cc(CCCCN=C(N)N)nn3)CC2)n1 and C#CCOCCOCCOCCNc1nc(N2CCN(C(=O)CCCCCCCCCCNC(=O)[C@H](CCCCN)n3cc(C)nn3)CC2)nc(N2CCN(C(=O)CCCCCCCCCCNC(=O)[C@H](CCCN=C(N)N)n3cc(C[C@@H](C)CC)nn3)CC2)n1 are within 1.5-fold of each other in AC50: 6.89 µM for the first, 6.66 µM for the second.

First: C#CCOCCOCCOCCNc1nc(N2CCN(C(=O)CCCCCCCCCCNC(=O)[C@H](CCCCN)n3cc(CCO)nn3)CC2)nc(N2CCN(C(=O)CCCCCCCCCCNC(=O)[C@H](CCCCN)n3cc(C[C@@H](C)CC)nn3)CC2)n1
Second: C=C(C=O)C[C@@H]1C[C@H](O)C2OC3C[C@]4(C)OC5/C=C\CC6OC7C(CC=CCC6OC5CCCC4OC3CC2O1)OC1CC2OC3CC(=O)OC3C[C@@H](C)C[C@@]2(C)OC1C[C@@H]7C (stereo not given in full)
The AC50 of the first is 2.9-fold higher: 6.27 µM for the first, 2.17 µM for the second.
